Legend:
[1] = tested on: S. mansoni somules (schistosomula, post-infective larvae); assay: Phenotypic screen of S. mansoni somules (severity score); assay type: cell-based, Schistosoma mansoni; parameters: key to SOMULE DESCRIPTORS @ 10 µM, 24 h: Dark = dark; S = Slow; O = overactive; I = Immobile; R = shape altered from normal (either larger or smaller); Deg = degenerative changes; D = dead; pD = "partial death:" % of worms in a well that appear to be dead; settings: for Somule Severity Score (10 µM) 24 h: score 0 (no effect) to 4 (maximum), averaged across two experiments; for SOMULE SEVERITY SCORES @ 10 µM, 24 / SOMULE SEVERITY SCORES @ 10 µM, 48 / SOMULE SEVERITY SCORES @ 10 µM, 72: score 0-4; for SOMULE SEVERITY SCORES @ 10 µM, 48 / Somule Severity Score (10 µM) 48 h: 48 h; for Somule Severity Score (10 µM) 48 h / Somule Severity Score (10 µM) 72 h: score 0 to 4
Description: (§1) Functionalized Pht-based molecules were synthesized, and phenotypically screened at 10 µM as a function of time against S. Mansoni somules (up to 72 h) and adults (up to 24 h). The resulting phenotypes were classified using a previously described nomenclature that records the many non-exclusive changes (descriptors) that can occur in the parasite in response to chemical insult. Each descriptor is converted into a value from 0 (no effect) to 4 (maximal effect) to allow for comparisons of effects on the parasite between compounds [40, 41, 42, 43]. For consistency, we consider a score of 2 to be the minimum for a compound to be considered active.
(§2) Maintenance of the S. mansoni (Naval Medical Research Institute (NMRI) isolate), life cycle involved male Golden Syrian Hamsters and Biomphalaria glabrata snails (NMRI isolate), as the definitive and intermediate hosts, respectively. Use of hamsters was approved by the Institutional Animal Care and Use Committee of the University of California San Diego. The preparation of somules (post-infective larvae derived from infectious larvae called cercariae) and adult worms (≥42-days-old), and their co-incubation with test compounds using a customized Basch incubation medium were as described. Screens of two developmental stages were employed in order to identify compounds with a potential broader spectrum of efficacy than the current drug, PZQ, which is deficient in this regard. Screens with somules employed 96-well round-bottomed plates and 40–50 animals/well, whereas screens with adults employed 24-well flat-bottomed plates and approximately 5–7 males and 2–3 females/well. Screens employed a final compound concentration of 10 µM in DMSO (at 0.5% and 0.1% final concentrations for somules and adults, respectively). The complex and often dynamic phenotypic responses that the schistosome parasite is capable of were observed using an Axiovert A1 inverted microscope at the times indicated in the data table. Observations were codified using a defined nomenclature that involves simple “descriptors”, to convey changes in shape, motility and appearance compared to DMSO controls. Each descriptor was given a value of 1 and these were added up to yield a “severity score” with a maximum of 4. Evidence of degeneracy or death was awarded a value of 4 for adult parasites specifically, the inability to adhere to the bottom of the well using oral or ventral suckers was given a score of 1 and damage to the tegument (surface) was awarded a value of 4 on the understanding that such damage in vivo would compromise survival. Scores were averaged across the two experiments.

S. mansoni adults = assay: Phenotypic screen of S. mansoni adult worms (severity score); assay type: cell-based, Schistosoma mansoni; settings: for ADULT SEVERITY SCORES @ 10 µM, 1 h / ADULT SEVERITY SCORES @ 10 µM, 5 h / ADULT SEVERITY SCORES @ 10 µM, 24 h: score 0-4; for Adult Severity Score (10 µM) 1 h / Adult Severity Score (10 µM) 5 h / Adult Severity Score (10 µM) 24 h: score 0 to 4
Description: as §1, §2

HepG2-A16-CD81EGFP cells = assay: HepG2 cell cytotoxicity assay (CellTiter-Glo); assay type: cell-based; settings: Homo sapiens, 72 h; for EC50: counter toxicity
Description: HepG2-A16-CD81EGFP cells (human hepatocarcinoma HepG2 cells stably transformed to express the tetraspanin CD81 receptor [51, 52]) were cultured at 37 °C in 5% CO2 in DMEM (without phenol red; Thermo Fisher Scientific, Waltham, MA, USA) supplemented with 10% FBS, 0.29 mg/mL glutamine, 100-unit penicillin and 100 μg/mL streptomycin. For cytotoxicity assays, compounds were prepared in 12-point 1:3 serial dilutions in DMSO starting at 10 mM. Then, 50 nL of compound (0.5% final DMSO concentration) were transferred with an Acoustic Transfer System (ATS) (Biosero) into white, solid bottom 1536-well assay plates (Greiner BioOne custom GNF mold; Monroe, NC, USA). Puromycin (12-point serial dilution starting at 10 μM) and 0.5% DMSO were used as positive and negative controls, respectively. After addition of compound, HepG2-A16-CD81EGFP cells in 10 µL of the above medium (5% FBS) were seeded into the assay plates at a density of 3,000 cells per well. Assay plates were incubated at 37 °C in 5% CO2for 72 h. To assess the HepG2 viability, the assay medium was removed by inverted centrifugation of the plate at 150 xg for 30 s. Then, 2 μL per well of CellTiter-Glo reagent (Promega diluted 1:2 with deionized water) was added using a MicroFlo liquid handler (BioTek). Immediately after addition of the CellTiter-Glo reagent, the luminescence was measured with an EnVision Multilabel reader (PerkinElmer). EC50 values were calculated using the normalized bioluminescence intensity and a non-linear, variable slope, four-parameter regression curve-fitting model in Prism 5 (GraphPad Software Inc., San Diego, CA, USA).

## CCC(C)C(c1nc2ccccc2n1Cc1cn(-c2ccc(F)cc2F)nn1)N1C(=O)c2ccccc2C1=O (stereo not drawn) [6w, 2-(1-(1-((1-(2,4-Difluorophenyl)-1H-1,2,3-triazol-4-yl)methyl)-1H-benzo[d]imidazol-2-yl)-2-methylbutyl)isoindoline-1,3-dione]
[1]; 24 h
  Somule Severity Score (10 µM) 24 h: 0
  SOMULE SEVERITY SCORES @ 10 µM, 24: 0
[1]
  SOMULE SEVERITY SCORES @ 10 µM, 48: 0
  Somule Severity Score (10 µM) 48 h: 0
[1]; 72 h, phenotypic descriptors
  SOMULE DESCRIPTORS @ 10 µM, 72 h: pD50
[1]; 72 h
  SOMULE SEVERITY SCORES @ 10 µM, 72: 2
  Somule Severity Score (10 µM) 72 h: 2
S. mansoni adults
  ADULT SEVERITY SCORES @ 10 µM, 1 h: 0
  Adult Severity Score (10 µM) 1 h: 0
S. mansoni adults; 5 h, phenotypic descriptors
  ADULT DESCRIPTORS @ 10 µM, 5 h: Unc, on sides
S. mansoni adults; 5 h
  ADULT SEVERITY SCORES @ 10 µM, 5 h: 2
  Adult Severity Score (10 µM) 5 h: 2
S. mansoni adults; 24 h, phenotypic descriptors
  ADULT DESCRIPTORS @ 10 µM, 24 h: Unc, on sides
S. mansoni adults; 24 h
  ADULT SEVERITY SCORES @ 10 µM, 24 h: 2
  Adult Severity Score (10 µM) 24 h: 2
HepG2-A16-CD81EGFP cells
  IC50: > 100 µM
  EC50: > 100 µM

## CCC(C)C(c1nc2ccccc2n1Cc1cn(-c2ccccc2F)nn1)N1C(=O)c2ccccc2C1=O (stereo not drawn) [6v, 2-(1-(1-((1-(2-Fluorophenyl)-1H-1,2,3-triazol-4-yl)methyl)-1H-benzo[d]imidazol-2-yl)-2-methylbutyl)isoindoline-1,3-dione]
[1]; 24 h
  Somule Severity Score (10 µM) 24 h: 0
  SOMULE SEVERITY SCORES @ 10 µM, 24: 0
[1]
  SOMULE SEVERITY SCORES @ 10 µM, 48: 0
  Somule Severity Score (10 µM) 48 h: 0
[1]; 72 h
  SOMULE SEVERITY SCORES @ 10 µM, 72: 0
  Somule Severity Score (10 µM) 72 h: 0
S. mansoni adults
  ADULT SEVERITY SCORES @ 10 µM, 1 h: 0
  Adult Severity Score (10 µM) 1 h: 0
S. mansoni adults; 5 h
  ADULT SEVERITY SCORES @ 10 µM, 5 h: 0
  Adult Severity Score (10 µM) 5 h: 0
S. mansoni adults; 24 h
  ADULT SEVERITY SCORES @ 10 µM, 24 h: 0
  Adult Severity Score (10 µM) 24 h: 0
HepG2-A16-CD81EGFP cells
  IC50: > 100 µM
  EC50: > 100 µM

## Cc1ccc(-n2cc(Cn3c(C(C)N4C(=O)c5ccccc5C4=O)nc4ccccc43)nn2)cc1 (stereo not drawn) [6z, 2-(1-(1-((1-(p-Tolyl)-1H-1,2,3-triazol-4-yl)methyl)-1H-benzo[d]imidazol-2-yl)ethyl)isoindoline-1,3-dione]
[1]; 24 h, phenotypic descriptors
  SOMULE DESCRIPTORS @ 10 µM, 24 h: R
[1]; 24 h
  Somule Severity Score (10 µM) 24 h: 1
  SOMULE SEVERITY SCORES @ 10 µM, 24: 1
[1]
  SOMULE SEVERITY SCORES @ 10 µM, 48: 0
  Somule Severity Score (10 µM) 48 h: 0
[1]; 72 h
  SOMULE SEVERITY SCORES @ 10 µM, 72: 0
  Somule Severity Score (10 µM) 72 h: 0
S. mansoni adults
  ADULT SEVERITY SCORES @ 10 µM, 1 h: 0
  Adult Severity Score (10 µM) 1 h: 0
S. mansoni adults; 5 h
  ADULT SEVERITY SCORES @ 10 µM, 5 h: 0
  Adult Severity Score (10 µM) 5 h: 0
S. mansoni adults; 24 h
  ADULT SEVERITY SCORES @ 10 µM, 24 h: 0
  Adult Severity Score (10 µM) 24 h: 0
HepG2-A16-CD81EGFP cells
  IC50: > 100 µM
  EC50: > 100 µM

## CC(c1nc2ccccc2n1Cc1cn(Cc2ccccc2)nn1)N1C(=O)c2ccccc2C1=O (stereo not drawn) [6e’, 2-(1-(1-((1-Benzyl-1H-1,2,3-triazol-4-yl)methyl)-1H-benzo[d]imidazol-2-yl)ethyl)isoindoline-1,3-dione]
other
  melting point: 181 to 183 °C

## CC(c1nc2ccccc2n1Cc1c[nH]nn1)N1C(=O)c2ccccc2C1=O (stereo not drawn) [6g’, 2-(1-(1-((1H-1,2,3-Triazol-4-yl)methyl)-1H-benzo[d]imidazol-2-yl)ethyl)isoindoline-1,3-dione]
other
  melting point: 97 to 99 °C

## CC(C)C(c1nc2ccccc2n1Cc1cn(-c2c(F)c(F)c(F)c(F)c2F)nn1)N1C(=O)c2ccccc2C1=O (stereo not drawn) [6r’, 2-(2-Methyl-1-(1-((1-(perfluorophenyl)-1H-1,2,3-triazol-4-yl)methyl)-1H-benzo[d]imidazol-2-yl)propyl)isoindoline-1,3-dione]
other
  melting point: 170 to 172 °C

## Cc1ccc2c(c1)C(=O)N(C(CC(C)C)c1nc3ccccc3n1Cc1cn(-c3c(F)c(F)c(F)c(F)c3F)nn1)C2=O (stereo not drawn) [6d, 5-Methyl-2-(3-methyl-1-(1-((1-(perfluorophenyl)-1H-1,2,3-triazol-4-yl)methyl)-1H-benzo[d]imidazol-2-yl)butyl)isoindoline-1,3-dione]
other
  melting point: 128 to 130 °C

## CCC(C)C(c1nc2ccccc2n1Cc1cn(-c2c(F)c(F)c(F)c(F)c2F)nn1)N1C(=O)c2ccccc2C1=O (stereo not drawn) [6t, 2-(2-Methyl-1-(1-((1-(perfluorophenyl)-1H-1,2,3-triazol-4-yl)methyl)-1H-benzo[d]imidazol-2-yl)butyl)isoindoline-1,3-dione]
other
  melting point: 86 to 88 °C

## CC(c1nc2ccccc2n1Cc1cn(-c2ccc(F)cc2F)nn1)N1C(=O)c2ccccc2C1=O (stereo not drawn) [6d’, 2-(1-(1-((1-(2,4-Difluorophenyl)-1H-1,2,3-triazol-4-yl)methyl)-1H-benzo[d]imidazol-2-yl)ethyl)isoindoline-1,3-dione]
other
  melting point: 195 to 197 °C

## CC(c1nc2ccccc2n1Cc1cn(-c2c(F)cccc2F)nn1)N1C(=O)c2ccccc2C1=O (stereo not drawn) [6f’, 2-(1-(1-((1-(2,6-Difluorophenyl)-1H-1,2,3-triazol-4-yl)methyl)-1H-benzo[d]imidazol-2-yl)ethyl)isoindoline-1,3-dione]
other
  melting point: 94 to 96 °C

## Cc1ccc2c(c1)C(=O)N(C(C)c1nc3ccccc3n1Cc1cn(-c3ccc(F)cc3)nn1)C2=O (stereo not drawn) [6h’, 2-(1-(1-((1-(4-Fluorophenyl)-1H-1,2,3-triazol-4-yl)methyl)-1H-benzo[d]imidazol-2-yl)ethyl)-5-methylisoindoline-1,3-dione]
other
  melting point: 222 to 224 °C

## CC(C)CC(c1nc2ccccc2n1Cc1cn(-c2ccc(F)cc2F)nn1)N1C(=O)c2ccccc2C1=O (stereo not drawn) [6o, 2-(1-(1-((1-(2,4-Difluorophenyl)-1H-1,2,3-triazol-4-yl)methyl)-1H-benzo[d]imidazol-2-yl)-3-methylbutyl)isoindoline-1,3-dione]
other
  melting point: 126 to 128 °C

## CCC(C)C(c1nc2ccccc2n1Cc1cn(-c2ccncc2)nn1)N1C(=O)c2ccccc2C1=O (stereo not drawn) [6u, 2-(2-Methyl-1-(1-((1-(pyridin-4-yl)-1H-1,2,3-triazol-4-yl)methyl)-1H-benzo[d]imidazol-2-yl)butyl)isoindoline-1,3-dione]
other
  melting point: 101 to 103 °C

## Cc1ccc2c(c1)C(=O)N(C(CC(C)C)c1nc3ccccc3n1Cc1cn(-c3ccccc3F)nn1)C2=O (stereo not drawn) [6i, 2-(1-(1-((1-(2-Fluorophenyl)-1H-1,2,3-triazol-4-yl)methyl)-1H-benzo[d]imidazol-2-yl)-3-methylbutyl)-5-methylisoindoline-1,3-dione]
other
  melting point: 138 to 140 °C
